One may read the IC50 as the point on the concentration scale where inhibition reaches its midpoint.

Results on 2 molecules are retold here after paper PMC11941218, “Juglone-Bearing Thiopyrano[2,3-d]thiazoles Induce Apoptosis in Colorectal Adenocarcinoma Cells” (Cells, 2025).

The subject of experiment [1] is DLD-1 colorectal adenocarcinoma cells. The experiment is described as follows: MTT assay. Format: cell-based, human. The following applies: for IC50: Homo sapiens. The procedure:
DLD-1, HaCaT, and Balb/c 3T3 cells were maintained in DMEM, while HT-29 cells were grown in McCoy’s 5A medium with 10% FBS and 1% penicillin/streptomycin. All cell lines were incubated at 37 °C in a humidified atmosphere with 5% CO2. After detaching the cells with trypsin, they were quantified using a Scepter 3.0 automated cell counter (Millipore, Burlington, MA, USA).
The metabolic activity of cells exposed to the tested derivatives, doxorubicin, and DMSO, was assessed using an MTT assay according to the manufacturer’s protocol (Sigma-Aldrich, St. Louis, MO, USA). Adherent cells were seeded into 96-well plates (5000–10,000 cells in 100 µL of growth medium per well) and allowed to adhere overnight before treatment. For lymphocytes, activation with phytohemagglutinin-L (1 µg/mL) was performed for 24 h, after which they were seeded in 96-well plates at a density of 100,000 cells/well in RPMI-1640 medium supplemented with 20% FBS. The test substances, including Les-6547, Les-6557, and doxorubicin, were added to 100 µL of culture medium to achieve final concentrations of 0 µM, 0.1 µM, 1 µM, 2.5 µM, 10 µM, and 100 µM for all compounds, and the cells were further incubated for 24, 48, or 72 h. DMSO-treated cells served as the control. Then, 20 µL of MTT solution (5 mg/mL) was added and incubated for 2–4 h to allow formazan crystal formation. The formazan crystals were then solubilized by adding DMSO. The absorbance of formazan was measured at 570 nm using a ThermoScientific Evolution 201 UV-VIS spectrophotometer (ThermoFisher Scientific, Waltham, MA, USA). The control condition with 0.5% DMSO was considered 100% viability. The IC50 values for the compounds were determined using GraphPad Prism 8 and 9 software (GraphPad Software, Boston, MA, USA).

Experiment [2] concerns HT-29 colorectal adenocarcinoma cells. The experiment is described as follows: [^3H]-thymidine incorporation assay (DNA biosynthesis). The experiment is classed as cell-based. The following applies: Homo sapiens; HT-29, 24 h, M ± SD, n = 3. The procedure:
(§1) The anti-proliferative potential of Les-6547 and Les-6557 was analyzed using a clonogenic assay and incorporation of radioactive [^3H]-thymidine into the DNA of colorectal adenocarcinoma HT-29 and DLD-1 cell lines after 24 h of incubation with various concentrations of the tested agents.
(§2) Next, we examined the effects of the tested compounds on the proliferative activity of human colorectal adenocarcinoma cells by assessing their ability to influence DNA biosynthesis using the thymidine incorporation assay (Figure 6, Table 8). Les-6547 decreased DNA biosynthesis in DLD-1 cells to 50% at a concentration of 2.19 ± 0.39 µM.
A general note: Dividing cells build labelled thymidine or BrdU into new DNA.

The subject of experiment [3] is DLD-1 colorectal adenocarcinoma cells. The experiment is described as above. The experiment is classed as cell-based. The following applies: Homo sapiens; DLD-1, 24 h, M ± SD, n = 3. The protocol:
as §1, §2

Experiment [4] relates to HT-29 colorectal adenocarcinoma cells. The experiment is described as follows: Mitochondrial membrane potential assay (JC-1, flow cytometry). The following applies: HT-29, JC-1, 24 h; Les-6547 5 μM, Les-6557 10 μM. The experiment is classed as cell-based, human. The protocol:
The disruption of mitochondrial membrane potential (MMP) was assessed using the JC-1 MitoScreen kit and a BD FACSCanto II flow cytometer, following the instructions provided and previously described protocols.
HT-29 cells were exposed to Les-6547 (5 µM) and Les-6557 (10 µM) for 24 h. After the treatment, the cells were washed and resuspended in 0.5 mL of buffer containing 10 μg/mL JC-1, followed by incubation for 15 min at room temperature, shielded from light.
Then, the cells were washed twice with buffer, resuspended in 300 μL of PBS, and analyzed for mitochondrial membrane potential disruption.

The test system is the same in experiment [5]. The experiment is described as follows: Apoptosis assay, FITC-Annexin V/propidium iodide flow cytometry. The experiment is classed as cell-based, human. The following applies: HT-29, 24 h; Les-6547 5 μM, Les-6557 10 μM. The protocol:
The pro-apoptotic effects of the tested compounds were assessed using the FITC Annexin V Apoptosis Detection Kit II in conjunction with a BD FACSCanto II flow cytometer (BD Biosciences, San Jose, CA, USA). The experimental procedure adhered to the manufacturer’s instructions and previously established protocols.
Initially, HT-29 cells were seeded in 6-well plates at a density of 300,000 cells per well in 2 mL of culture medium and incubated overnight to allow adherence. Subsequently, the cells were treated with Les-6547 (5 µM) and Les-6557 (10 µM) for 24 h. After exposure to the compounds, the cells were rinsed twice with cold PBS and suspended in the binding buffer provided in the kit. FITC Annexin V and propidium iodide (PI) were added to the 100 µL cell suspension, followed by 15-min incubation at room temperature, shielded from light.
After the incubation, 300 µL of binding buffer was added to each sample, and analysis was performed using the flow cytometer, with 10,000 events recorded per sample. Data were processed using FACSDiva software (version 6.1.3, BD Biosciences, San Jose, CA, USA). Calibration of the instrument was ensured using a BD Cytometer Setup and Tracking Beads (BD Biosciences, San Diego, CA, USA).
In general terms: In flow cytometry, cells or beads pass a laser one at a time.

The test system of another experiment is caspase 10. The experiment is described as follows: Caspase 10 activity assay (FAM-FLICA, flow cytometry) in HT-29 cells. The experiment is classed as cell-based, human. The following applies: HT-29, 24 h; Les-6547 5 μM, Les-6557 10 μM. The protocol: Caspase activity for initiator caspases (8, 9, and 10) and executioner caspases (3/7) was evaluated using a FAM-FLICA® Caspase Assay kit (ImmunoChemistry Technologies, Bloomington, MN, USA) according to the manufacturer’s instructions, as described in previous studies. HT-29 cells were exposed to Les-6547 (5 µM) and Les-6557 (10 µM) for 24 h. Following this, the cells were harvested, washed twice with cold PBS, and resuspended in Apoptosis Wash Buffer (ImmunoChemistry Technologies, Bloomington, MN, USA) at a final concentration of 5 × 10^5 cells/mL.
Subsequently, 290 µL of the cell suspension was transferred into individual tubes, to which 10 µL of freshly prepared FLICA solution (1:5 dilution in PBS) was added. The mixture was gently pipetted and incubated for 1 h at 37 °C in the dark. After the incubation, the cells were washed twice with 2 mL of Apoptosis Wash Buffer, centrifuged, and resuspended in 300 µL of the same buffer. The prepared samples were immediately analyzed using a BD FACSCanto II flow cytometer (10,000 events). Data were processed using FACSDiva 6.1.3 software (BD Biosciences Systems, San Jose, CA, USA). Flow cytometer calibration was conducted using a BD Cytometer Setup and Tracking Beads (BD Biosciences, San Diego, CA, USA).

Where [6] appears, read: DLD-1, MTT, 24, 48 and 72 h, read-out: IC50 (range over incubation times).
[7] abbreviates: DLD-1, MTT, 24 h, M ± SD, n = 3, read-out: IC50.
The mark [8] stands for this setting: DLD-1, MTT, 48 h, M ± SD, n = 3, read-out: IC50.
[9] abbreviates: DLD-1, MTT, 72 h, M ± SD, n = 3, read-out: IC50.

On to `O=C1C2=C(C(=O)c3c(O)cccc31)C(c1cc(Cl)ccc1O)c1sc(=O)[nH]c1S2` (centres unmarked) [Les-6547], for which the IC50 in experiment [1] (setting [6]) is 5.14 to 6.62 µM; in experiment [1] (setting [7]), 5.14 ± 0.81 µM; in experiment [1] (setting [8]), 5.17 ± 0.58 µM; in experiment [1] (setting [9]) it was 6.62 ± 0.07 µM; in experiment [2] it was 2.21 ± 0.39 µM; in experiment [3], 2.19 ± 0.39 µM. The “Cells with decreased ΔΨm” value in experiment [4] was 30.8%. In experiment [4], the “Cells with normal ΔΨm” value turned out to be 70.4%. Moreover, in experiment [5], the “apoptotic cells (sum of early and late apoptotic cells)” value amounted to 36.2%.

On to `O=C1C2=C(C(=O)c3c(O)cccc31)C(c1ccc(Cl)cc1)c1sc(=O)[nH]c1S2` (centres unmarked) [Les-6557], for which the “Cells with active caspase 10” value with caspase 10 is recorded as 40.9%. Moreover, the “inhibition of viability, times more effective than Les-6547” value in experiment [1] (DLD-1, MTT, 48 h, versus Les-6547) stood at 2.5 times. Moreover, the half-inhibitory concentration (IC50) in experiment [1] (setting [6]) was 1.94 to 16.9 µM; in experiment [1] (setting [7]) it was 16.9 ± 3.32 µM; in experiment [1] (setting [8]) it was 1.94 ± 0.05 µM; in experiment [1] (setting [9]), 5.19 ± 1.14 µM; in experiment [2], 2.91 ± 0.38 µM; in experiment [3] it was 4.65 ± 0.02 µM. The “Cells with decreased ΔΨm” value in experiment [4] came to 32.9%. For the same molecule, in experiment [4], the “Cells with normal ΔΨm” value came out at 68.5%. In experiment [5], the “apoptotic cells (sum of early and late apoptotic cells)” value amounted to 31.9%.
